Measured values from a melting point compilation (Tetko et al.).
Starred links: 1 amine or outer side, 2 acyl side, 3 side chain; linkers in the order of their positions; H or OH if unused. Positions of bridges follow the written chain, without caps; N, C: chain ends. Non-standard residues stand in square brackets, D forms with d. Residues, ends and D or L forms follow the SMILES beside them. *: point of attachment. X7 = CCC(C)C(N[*:1])C(O)CC(=O)OC(C(C)C)C(O)C(C)C(=O)[*:2]; Cyclohexanecarbonyl = O=C(C1CCCCC1)*; NMeY = CN[CH](Cc1ccc(O)cc1)C(=O)O; NMeL = CN[CH](CC(C)C)C(=O)O; Bn = c1ccc(C*)cc1

Row | melting point [°C] | Compound
1 | 79 to 81 | CCCCCCCCCCCCCCCCCCOc1cc(OCCCCCc2cccc(OCc3ccccc3)c2OCc2ccccc2)cc(N(CC(=O)O)CC(=O)O)c1
2 | 192 to 195 | COc1ccc(Br)cc1S(=O)(=O)Nc1onc(C)c1Br
3 | 6 | FC(F)(F)c1ccc(Cl)nc1Cl
4 | 75 to 77 | CCCCCCCCCCCCCCCCCCN(CCCCCCCCCCCCCCCCCC)C(=O)c1cc(NS(=O)(=O)c2cnc(NN)c(Cl)c2)c2ccccc2c1O
5 | 150 to 152 | [C-]#[N+]C(=CC=C1C=C(c2ccccc2)C=C(c2ccccc2)O1)C(=O)OCC
6 | 220 to 223 | COc1cc(OC)c(/C=C/C(c2ccc(OC)c(NC(C)=O)c2)S(=O)(=O)C(/C=C/c2c(OC)cc(OC)cc2OC)c2ccc(OC)c(NC(C)=O)c2)c(OC)c1 (stereo not drawn)
7 | 124 to 127 | CCC(C)C1NC(=O)C(NC(=O)C(CC(C)C)NC)C(C)OC(=O)C(Cc2ccc(OC)cc2)N(C)C(=O)C2CCCN2C(=O)C(CC(C)C)NC(=O)C(C)C(O)C(C(C)C)OC(=O)CC1O (stereo not drawn) (H-[NMeL]T[X7]LP[NMeY](Me); ester 2-C; configuration not given here)
8 | 140 to 141 | CC(C)n1c(CC[C@@H](O)C[C@@H](O)CC(=O)O)c(-c2ccc(F)cc2)c(-c2ccccc2)c1C(=O)NCc1cccc(C(=O)O)c1
9 | 236 to 239 | NCC1Cc2cc(F)cc(-c3ccoc3)c2O1 (stereo not drawn)
10 | 105 | CC(C)(C)OC(=O)NC(Cc1cc(I)c(Oc2cc(I)c(OCC3CO3)c(I)c2)c(I)c1)C(=O)OCC1CO1 (stereo not drawn)
11 | 92 to 94 | CC(C)[C@H](NC(=O)N(C)Cc1cscn1)C(=O)N[C@@H](Cc1ccccc1)[C@@H](O)[C@H](O)[C@H](Cc1ccccc1)NC(=O)[C@@H](NC(=O)N(C)Cc1cscn1)C(C)C
12 | 228 to 230 | CC(=O)OCC(COC(C)=O)NC(=O)c1c(I)c(NC(=O)OCC2CO2)c(I)c(C(=O)NC(COC(C)=O)COC(C)=O)c1I (stereo not drawn)
13 | 156 to 158 | COc1cc(OC)c(/C=C/C(c2ccc(OC)c(NCCC(=O)O)c2)S(=O)(=O)C(/C=C/c2c(OC)cc(OC)cc2OC)c2ccc(OC)c(NCCC(=O)O)c2)c(OC)c1 (stereo not drawn)
14 | 233 to 236 | CC(C)(c1ccc(OCC(O)CN2C(=O)NC3(CC(C)(C)N(CCO)C(C)(C)C3)C2=O)cc1)c1ccc(OCC(O)CN2C(=O)NC3(CC(C)(C)N(CCO)C(C)(C)C3)C2=O)cc1 (stereo not drawn)
15 | 274 to 276 | Clc1c(Br)c(Cl)c(COCc2c(Cl)c(Br)c(Cl)c(Br)c2Br)c(Br)c1Br
16 | 219 to 221 | CC(c1cc(C(C)(C)C)cc(C(C)(C)C)c1O)c1cc(C(C)(C)C)cc(C(C)(C)C)c1OP1Oc2c(cc(C(C)(C)C)cc2C(C)(C)C)C(C)c2cc(C(C)(C)C)cc(C(C)(C)C)c2O1 (stereo not drawn)
17 | 125 to 130 | N=C(NC(=O)OCc1ccccc1)N(CCCC(NC(=O)C(Cc1ccccc1)NC(=O)OCc1ccccc1)C(=O)Oc1cccc2ccccc12)C(=O)OCc1ccccc1 (stereo not drawn)
18 | 170 to 173 | CS(=N)(=O)c1ccc(Nc2ncc(Br)c(Cl)n2)cc1 (racemic)
19 | 133 to 134 | CC(C#N)N1CCC(c2noc3cc(F)ccc23)CC1 (stereo not drawn)

Row | melting point [°C] | Compound
20 | 227 to 230 | O=C(NCC(O)CO)c1c(I)c(C(=O)NCC(O)CO)c(I)c(N2C(=O)COCC2CO)c1I (stereo not drawn)
21 | 158 to 160 | COC(=O)C(CC(C)C)NC(=O)C(Cc1ccc(OCc2ccccc2)cc1)NC(=O)C(COCc1ccccc1)NC(=O)C(Cc1c[nH]c2ccccc12)NC(=O)C1CCCCC1 (Cyclohexanecarbonyl-WS(Bn)Y(Bn)L-OMe; configuration not given here)
22 | 93.4 | CCCCCCCCOc1ncc(-c2ccc(C(OC(c3ccc(-c4cnc(OCCCCCCCC)nc4)cc3)C3COC4(CCCCC4)O3)C3COC4(CCCCC4)O3)cc2)cn1 (stereo not drawn)
23 | 108 to 111 | CC(C)[C@H](NC(=O)N(C)Cc1csc(N)n1)C(=O)N[C@@H](Cc1ccccc1)[C@H](O)[C@@H](O)[C@H](Cc1ccccc1)NC(=O)[C@@H](NC(=O)N(C)Cc1nccs1)C(C)C
24 | 150 to 152 | CC(C)[C@H](NC(=O)N(C)Cc1nc2ccccc2[nH]1)C(=O)N[C@@H](Cc1ccccc1)C[C@H](O)[C@H](Cc1ccccc1)NC(=O)[C@@H](NC(=O)N(C)Cc1nc2ccccc2[nH]1)C(C)C
25 | 178 to 181 | O=S(=O)(C(/C=C/c1c(F)c(F)c(F)c(F)c1F)c1ccc(I)cc1)C(/C=C/c1c(F)c(F)c(F)c(F)c1F)c1ccc(I)cc1 (stereo not drawn)
26 | 122 | CC(=O)OC(CN1C(=O)C2(CC(C)(C)N(C(C)=O)C(C)(C)C2)OC12CCCCCCCCCCC2)CN1C(=O)C2(CC(C)(C)N(C(C)=O)C(C)(C)C2)OC12CCCCCCCCCCC2
27 | 107 to 108 | Cc1nn(-c2ccc(C(F)(F)F)cn2)cc1CCCOc1cccc(OC(C)(C)C(=O)O)c1
28 | 168 to 170 | CCCCCCCCCCCCSc1nc(N(C2CC(C)(C)NC(C)(C)C2)C2CC(C)(C)NC(C)(C)C2)nc(N(C2CC(C)(C)NC(C)(C)C2)C2CC(C)(C)NC(C)(C)C2)n1
29 | 36 | C=CC(=O)OCCCCCCOc1ccc(C(=O)Oc2ccc(OC(=O)c3ccc(OCCCCCCOC(=O)C=C)cc3)c(C(=O)OCCCCCCCCOC(=O)c3ccco3)c2)cc1
30 | 135 to 137 | COc1ccc(OC)c(CCNC(=O)N[C@H](Cc2cc(Br)c(O)c(Br)c2)C(=O)N[C@@H](CCCCN)C(=O)N2CCN(c3ccncc3)CC2)c1
31 | 209 to 211 | CCOC(=O)C=Cc1cc2cc(OC)ccc2[nH]c1=O
32 | 169 to 171 | CCC(C)(C)c1ccc(OCC(=O)Nc2cccc(C(=O)Nc3[nH]n(-c4c(Cl)cc(Cl)cc4Cl)c(=O)c3-n3nnn(-c4ccccc4)c3=S)c2)c(C(C)(C)CC)c1
33 | 49.9 to 52.4 | FC(F)(F)C(F)(F)C(F)(F)C(F)(F)C(F)(F)C(F)(F)CCc1ccc(P(c2ccc(CCC(F)(F)C(F)(F)C(F)(F)C(F)(F)C(F)(F)C(F)(F)F)cc2)c2ccc(CCC(F)(F)C(F)(F)C(F)(F)C(F)(F)C(F)(F)C(F)(F)F)cc2)cc1
34 | 105 to 115 | CC(C)(C)c1cc(CCC(=O)OC2C(C)(C)C(OC(=O)CCc3cc(C(C)(C)C)c(O)c(C(C)(C)C)c3)C(C)(C)C(OC(=O)CCc3cc(C(C)(C)C)c(O)c(C(C)(C)C)c3)C2(C)C)cc(C(C)(C)C)c1O (stereo not drawn)
35 | 66 to 79 | CCC(COC(=O)CCc1cc(C(C)(C)C)c(O)c(C(C)(C)C)c1)(COC(=O)CCc1cc(C(C)(C)C)c(O)c(C(C)(C)C)c1)COC(=O)CCc1cc(C(C)(C)C)c(O)c(C(C)(C)C)c1
36 | 64 | F[Si](c1ccccc1)(c1ccccc1)c1ccccc1
37 | 115 to 118 | CCc1nc2c(cnn2CC)c(NC2CCOCC2)c1CNC(=O)c1cccc(C(=O)NCc2ccc(C)c(-c3cccc(CN4CCN(C(=O)OC(C)(C)C)C(C)C4)c3)c2)c1 (stereo not drawn)
38 | 86 to 89 | CC(C)CCCC(C)C1CCC2C3CC=C4CC(N(CCCNC(=O)CCNC(=O)CCCCCNc5ccc([N+](=O)[O-])c6nonc56)S(=O)(=O)c5ccccc5[N+](=O)[O-])CCC4(C)C3CCC12C (stereo not drawn)

Row | melting point [°C] | Compound
39 | 128 to 131 | CS(C)(=O)=NC(=O)c1cc(Oc2ccc(C(F)(F)F)cc2Cl)ccc1Cl
40 | 217 to 219 | CC(NC(=O)C(CC(C(=O)O)C(C)(C)C)NC(=O)C(CC(C(=O)O)C(C)(C)C)NC(=O)C(NC(=O)OCc1ccccc1)C(C)C)C(=O)NC(CC(C(=O)O)C(C)(C)C)C(=O)NC(CC(N)=O)C(=O)OC(C)(C)C (stereo not drawn)
41 | 137 to 138 | COc1c(Cl)nc(-c2ccc(Cl)c(OC)c2F)nc1Cl
42 | 115 to 117 | Cc1cc(C)c2cccc(OCc3c(Cl)ccc(S(=O)(=O)N4CCC[C@H]4C(=O)NC4CCN(C(=O)CCN(C=NC(=O)OC(C)(C)C)NC(=O)OC(C)(C)C)CC4)c3Cl)c2n1
43 | 132 to 135 | Cc1ccc(C(=O)Oc2ccc3c(OC(=O)c4ccc(C)c(OCc5ccccc5)c4)c4ccccc4cc3c2OC(=O)c2ccc(C)c(OCc3ccccc3)c2)cc1OCc1ccccc1
44 | 178 to 179 | CC(C)[C@H](NC(=O)N1CCN(Cc2ccccc2)CC1)C(=O)N[C@@H](Cc1ccccc1)[C@@H](O)[C@H](O)[C@H](Cc1ccccc1)NC(=O)[C@@H](NC(=O)N1CCN(Cc2ccccc2)CC1)C(C)C
45 | 107 to 108 | CS(=O)(=O)c1ccc(C(Cc2ccccc2Cl)C(=O)Nc2nc3ccccc3o2)cc1 (stereo not drawn)
46 | 128 | Oc1ccccc1N1CCOCC1
47 | 127 to 129 | CCOC(=O)COc1cccc2c1CCc1sc(S(=O)CC(c3ccccc3)c3ccccc3)nc1-2 (stereo not drawn)
48 | 100 to 102 | O=C(CC(CC(=O)OCc1cc(Br)cc(Br)c1O)C(=O)OCc1cc(Br)cc(Br)c1O)OCc1cc(Br)cc(Br)c1O
49 | 194 to 197 | CC(CO)Nc1nc(Nc2ccc(S(C)(=O)=NS(=O)(=O)CC[Si](C)(C)C)cc2)ncc1Br (mixture of isomers)
50 | 220 to 222 | CC(=O)NC1C(OCc2ccccc2)OC(COCc2ccccc2)C(OC2OC(COCc3ccccc3)C(OCc3ccccc3)C(OCc3ccccc3)C2NC(C)=O)C1O (stereo not drawn)
51 | 245 to 250 | CC(C)(C)c1cc(-c2cc(C(C)(C)C)cc(C(C)(C)C)c2Op2oc3c(C(C)(C)C)cc(C(C)(C)C)cc3c3cc(C(C)(C)C)cc(C(C)(C)C)c3o2)c(O)c(C(C)(C)C)c1
52 | 191 | CC#CCOc1ccc(S(=O)(=O)C(C(=O)NO)C2CCCCC2)cc1 (stereo not drawn)
53 | 118 to 120 | CC(C)[C@H](NC(=O)N(C)Cc1cscn1)C(=O)N[C@@H](Cc1ccccc1)[C@H](O)[C@@H](O)[C@H](Cc1ccccc1)NC(=O)[C@@H](NC(=O)N(C)Cc1csc(N)n1)C(C)C
54 | 102 to 104 | Cc1ccnc2nc(SCc3ccccc3)nn12
55 | 85 to 87 | COC(=O)COc1cc(F)ccc1[N+](=O)[O-]
56 | 202 to 207 | CC1(C)CC2(CC(C)(C)N1)NC(=O)N(CC(COc1ccc(C(C)(C)c3ccc(OCC(CN4C(=O)NC5(CC(C)(C)NC(C)(C)C5)C4=O)OC(=O)Nc4ccccc4)cc3)cc1)OC(=O)Nc1ccccc1)C2=O (stereo not drawn)

Row | Compound | melting point [°C]
57 | COc1cc(OC)c(/C=C/C(c2ccc(OC)c(NC(=O)c3cc([N+](=O)[O-])cc([N+](=O)[O-])c3)c2)S(=O)(=O)C(/C=C/c2c(OC)cc(OC)cc2OC)c2ccc(OC)c(NC(=O)c3cc([N+](=O)[O-])cc([N+](=O)[O-])c3)c2)c(OC)c1 (stereo not drawn) | 277 to 279
58 | Brc1cc(Br)c(Oc2nc(Oc3c(Br)cc(Br)cc3Br)nc(Oc3c(Br)cc(Br)cc3Br)n2)c(Br)c1 | 215 to 218
